Drawing on US20240174603A1 (Rappta Therapeutics Oy, priority 2021, published 2024), this text covers GI50 for ten molecules.

In the first test the test system is LNCaP cells. As to the kind of experiment: LNCaP cell viability assay (MTS). The format is cell-based. The note with it: Homo sapiens, LNCaP, 48 h, LNCaP cell line. In a few lines: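 GI50 derived by nonlinear four-parameter curve fitting (bottom fixed at zero) of MTS viability data. Prostate LNCaP cells seeded at 5000/well were given compound doses from 1 to 80 µM one day after plating and assayed after 48 h of exposure.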
In general, GI50 refers to the concentration at which growth is held to half of that of the control. High values mean less potent growth inhibition, low ones more potent growth inhibition. For the molecule `O=S(=O)(NC(CN1CCNCC1)c1ccc(Cl)cc1)c1ccc(OC(F)(F)F)nc1` (stereo not shown) [Compound 259, N-(1-(4-chlorophenyl)-2-(piperazin-1-yl)ethyl)-6-(trifluoromethoxy)pyridine-3-sulfonamide], halving of growth (GI50) required 48.8 µM.
For `O=S(=O)(NCC1(c2ccccc2)CCNCC1)c1ccc(OC(F)(F)F)cc1` [Compound 260, N-((4-phenylpiperidin-4-yl)methyl)-4-(trifluoromethoxy)benzenesulfonamide], the GI50 amounted to 33.6 µM.
On to `O=S(=O)(NCC1(c2cccc(C(F)(F)F)c2)CCCC1)c1ccc(OC(F)(F)F)cc1` [Compound 262, 4-(trifluoromethoxy)-N-((1-(3-(trifluoromethyl)phenyl)cyclopentyl)methyl)benzenesulfonamide], for which the GI50 turned out to be 63.1 µM.
The same measure, in the same setting: then `O=S(=O)(NC(CN1CCNCC1)c1ccc(F)cc1)c1ccc(OC(F)(F)F)cc1` (stereo not shown) [Compound 264, N-(1-(4-fluorophenyl)-2-(piperazin-1-yl)ethyl)-4-(trifluoromethoxy)benzenesulfonamide], with 43.1 µM; and `O=S(=O)(NC[C@H](c1ccc(F)cc1)N1CCNCC1)c1ccc(OC(F)(F)F)cc1` [Compound 265, (S)—N-(2-(4-fluorophenyl)-2-(piperazin-1-yl)ethyl)-4-(trifluoromethoxy)benzenesulfonamide], with 40.3 µM; and `CN(C)CC(NS(=O)(=O)c1ccc(C(F)(F)F)c([N+](=O)[O-])c1)c1ccc(Cl)c(Cl)c1` (stereo not shown) [Compound 266, N-(1-(3,4-dichlorophenyl)-2-(dimethylamino)ethyl)-3-nitro-4-(trifluoromethyl)benzenesulfonamide], with 41.9 µM.
The same measure, in the same setting: to `CCCOc1ccc(S(=O)(=O)NC(CN(C)C)c2ccc(Cl)c(Cl)c2)cc1` (stereo not shown) [Compound 267, N-(1-(3,4-dichlorophenyl)-2-(dimethylamino)ethyl)-4-propoxybenzenesulfonamide] belongs 23.8 µM; to `CN(C)CC(NS(=O)(=O)c1ccc(NC2CCCCC2)cc1)c1ccc(Cl)c(Cl)c1` (stereo not shown) [Compound 268, 4-(cyclohexylamino)-N-(1-(3,4-dichlorophenyl)-2-(dimethylamino)ethyl)benzenesulfonamide], 15.5 µM.
On the same count and under the same terms, to `CN1CCN(CC(NS(=O)(=O)c2ccc(Oc3ccc(F)cc3)cc2)c2ccc(Cl)c(Cl)c2)CC1` (stereo not shown) [Compound 269, N-(1-(3,4-dichlorophenyl)-2-(4-methylpiperazin-1-yl)ethyl)-4-(4-fluorophenoxy)benzenesulfonamide] belongs 15 µM.

A further test has as its system HCC1937 cells. As to the kind of experiment: HCC1937 cell viability assay (MTS). The test is classed as cell-based. The note with it: Homo sapiens; HCC1937 cell line, 48 hours, MTS assay (footnote a). On the procedure: HCC1937 cells are plated in a 96 well plate format at a density of 10,000 cells per well. After incubation overnight, cells are treated with a compound (e.g., compound 263) at following concentrations: 80, 40, 20, 10, 5, 2.5, 1.25 μM. Compound concentrations are prepared in RPMI via serial dilutions from a starting stock of 80 mM. 48 hours after compound treatment, cell viability is assessed using the Promega CellTiter 96 aqueous one proliferation assay (Promega G3582, MTS assay) according to manufacturer's protocol.
The cell viability data was analyzed with GraphPad Prism software. The values were log transformed and analyzed with non-linear regression (curve-fit) using log(inhibitor) vs. response-variable slope (four parameters) and constraining the bottom to equal zero. Unless otherwise indicated, the GI50 values provided in Table 113 correspond to the LNCaP cell viability assays.
`O=S(=O)(NCC1(c2ccccc2)CCCN1)c1ccc(OC(F)(F)F)cc1` (stereo not shown) [Compound 263, N-((2-phenylpyrrolidin-2-yl)methyl)-4-(trifluoromethoxy)benzenesulfonamide] registered a GI50 of 75.7 µM.
